{"source": "patent US20060241177A1", "about": "“Novel compounds, pharmaceutical compositions containing same, and methods of use for same” (priority 2002, published 2006)", "biological_target": "T1, Carnitine Palmitoyltransferase-1 (CPT-1) (Homo sapiens, UniProt P50416)", "T1 construct": "This assay uses permeabilized cells to measure the transfer of [methyl-^14C]L-carnitine; endogenous in cells; host or cells: MCF-7 cells, digitonin-permeabilized", "T1 sequence (P50416 1-773)": "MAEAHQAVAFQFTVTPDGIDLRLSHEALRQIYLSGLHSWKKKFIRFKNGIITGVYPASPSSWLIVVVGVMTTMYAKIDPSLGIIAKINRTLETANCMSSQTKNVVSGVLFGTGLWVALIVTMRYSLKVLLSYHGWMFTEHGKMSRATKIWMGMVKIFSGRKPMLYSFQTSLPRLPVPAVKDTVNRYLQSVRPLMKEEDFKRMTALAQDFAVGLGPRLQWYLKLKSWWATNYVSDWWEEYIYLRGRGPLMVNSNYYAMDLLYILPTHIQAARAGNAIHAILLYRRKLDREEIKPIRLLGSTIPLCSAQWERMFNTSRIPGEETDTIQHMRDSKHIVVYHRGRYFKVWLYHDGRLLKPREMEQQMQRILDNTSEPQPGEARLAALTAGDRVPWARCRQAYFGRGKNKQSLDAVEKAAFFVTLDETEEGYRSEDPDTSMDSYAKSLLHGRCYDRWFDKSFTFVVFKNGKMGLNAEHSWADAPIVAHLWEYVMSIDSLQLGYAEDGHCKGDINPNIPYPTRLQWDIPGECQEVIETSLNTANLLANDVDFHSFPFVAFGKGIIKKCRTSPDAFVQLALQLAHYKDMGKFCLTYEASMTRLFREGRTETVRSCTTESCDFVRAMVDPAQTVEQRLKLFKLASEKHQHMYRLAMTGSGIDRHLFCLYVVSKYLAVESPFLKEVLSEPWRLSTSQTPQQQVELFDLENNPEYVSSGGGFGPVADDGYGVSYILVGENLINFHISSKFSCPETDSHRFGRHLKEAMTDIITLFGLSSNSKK", "test": "Carnitine palmitoyltransferase-1 (CPT-1) assay in permeabilized MCF-7 cells", "format": "cell-based", "details": "MCF at 10 ug.ml", "method": "Carnitine Palmitoyltransferase-1 (CPT-1) Assay\nCPT-1 catalyzes the ATP dependent transfer of long-chain fatty acids from acyl-CoA to acyl-carnitine that is inhibited by malonyl-CoA. As CPT-1 requires the mitochondrial membrane for activity, enzyme activity is measured in permeabilized cells or mitochondria This assay uses permeabilized cells to measure the transfer of [methyl-^14C]L-carnitine to the organically soluble acyl-carnitine deriviative.\nMCF-7 cells are plated in DMEM with 10% fetal bovine serum at 10^6 cells in 24-well plates in triplicate for controls, drugs, and malonyl-CoA. Two hours before commencing the assay, drugs are added at the indicated concentrations made from stock solutions at 10 mg/ml in DMSO, vehicle controls consist of DMSO without drug. Since malonyl-CoA cannot enter intact cells, it is only added in the assay buffer to cells that have not been preincubated with drugs. Following overnight incubation at 37° C., the medium is removed and replaced with 700 μl of assay buffer consisting of: 50 mM imidazole, 70 mM KCl, 80 mM sucrose, 1 mM EGTA, 2 mM MgCl2, 1 mM DTT, 1 mM KCN, 1 mM ATP, 0.1% fatty acid free bovine serum albumin, 70 μM palmitoyl-CoA, 0.25 μCi [methyl-^14C]L-carnitine, 40 μg digitonin with drug, DMSO vehicle control, or 20 μM malonyl-CoA. […] The butanol phase is counted by liquid scintillation and represents the acylcarnitine derivative.", "data": [{"smiles": "C=CCNC(=O)[C@@H]1C(=C)C(=O)O[C@H]1CCCCCCCC", "note": "(racemic)", "values": [{"measurement": "CPT I Stim", "result": "400% of control/MCF"}]}]}
